Where a chain is given by its changes, count along the chain named. Several values for one entry are separate records, joined by “and”; a condition that tells them apart may be missing. Identical values can stand only once. Like-named read-outs stand apart in the source and are kept apart here.
B1: Rv3125c: MTB protein, novel CD4 T cell antigen; PE/PPE (protein, listed as Mycobacterium tuberculosis)
chain: MVLGFSWLPPEINSARMFAGAGSGPLFAAASAWEGLAADLWASASSFESVLAALTTGPWTGPASMSMAAAASPYVGWLSTVASQAQLAAIQARAAATAFEAALAATVHPTAVTANRVSLASLIAANVLGQNTPAIAATEFDYLEMWAQDVAAMVGYHAGAKSVAATLAPFSLPPVSLAGLAAQVGTQVAGMATTASAAVTPVVEGAMASVPTVMSGMQSLVSQLPLQHASMLFLPVRILTSPITTLASMARESATRLGPPAGGLAAANTPNPSGAAIPAFKPLGGRELGAGMSAGLGQAQLVGSMSVPPTWQGSIPISMASSAMSGLGVPPNPVALTQAAGAAGGGMPMMLMPMSISGAGAGMPGGLMDRDGAGWHVTQARLTVIPRTGVG
B2: Rv3615c: MTB antigen functionally linked to Esx-1 (Millington et al., 2011); single antigen, not part of an antigenic island (protein, UniProt P9WJD7 2-103, looked up)
ESX-1 secretion-associated …: TENLTVQPERLGVLASHHDNAAVDASSGVEAAAGLGESVAITHGPYCSQFNDTLNVYLTAHNALGSSLHTAGVDLAKSLRIAAKIYSEADEAWRKAIDGLFT
B3: Rv3330: MTB protein, novel CD4 T cell antigen; Cell wall and cell processes (protein, listed as Mycobacterium tuberculosis)
chain: MAFLRSVSCLAAAVFAVGTGIGLPTAAGEPNAAPAACPYKVSTPPAVDSSEVPAAGEPPLPLVVPPTPVGGNALGGCGIITAPGSAPAPGDVSAEAWLVADLDSGAVIAARDPHGRHRPASVIKVLVAMASINTLTLNKSVAGTADDAAVEGTKVGVNTGGTYTVNQLLHGLLMHSGNDAAYALARQLGGMPAALEKINLLAAKLGGRDTRVATPSGLDGPGMSTSAYDIGLFYRYAWQNPVFADIVATRTFDFPGHGDHPGYELENDNQLLYNYPGALGGKTGYTDDAGQTFVGAANRDGRRLMTVLLHGTRQPIPPWEQAAHLLDYGFNTPAGTQIGTLIEPDPSLMSTDRNPADRQRVDPQAAARISAADALPVRVGVAVIGALIVFGLIMVARAMNRRPQH
B4: Rv1788: MTB protein, novel CD4 T cell antigen; PE/PPE (protein, listed as Mycobacterium tuberculosis)
chain: MSFVTTQPEALAAAAGSLQGIGSALNAQNAAAATPTTGVVPAAADEVSALTAAQFAAHAQIYQAVSAQAAAIHEMFVNTLQMSSGSYAATEAANAAAAG
B5: Rv1791: MTB protein, novel CD4 T cell antigen; PE/PPE (protein, listed as Mycobacterium tuberculosis)
chain: B4 chain with G16A, S17N, S23T, A24T, L25M, T34A, I61M, A64T, Q81V, M82A
B6: Rv0294: MTB protein, novel CD4 T cell antigen; Intermediary metabolism and respiration, Island 1 (protein, listed as Mycobacterium tuberculosis)
chain: MWDPDVYLAFSGHRNRPFYELVSRVGLERARRVVDLGCGPGHLTRYLARRWPGAVIEALDSSPEMVAAAAERGIDATTGDLRDWKPKPDTDVVVSNAALHWVPEHSDLLVRWVDELAPGSWIAVQIPGNFETPSHAAVRALARREPYAKLMRDIPFRVGAVVQSPAYYAELLMDTGCKVDVWETTYLHQLTGEHPVLDWITGSALVPVRERLSDESWQQFRQELIPLLNDAYPPRADGSTIFPFRRLFMVAEVGGARRSGG

System: PBMCs from LTBI donors (IFN-γ production)
Type: cell-based, human
Settings: for Resp. freq.: fraction of 28 LTBI donors responding to epitopes of the antigen; for Resp. freq. / Total SFC: ex vivo IFN-γ ELISPOT; for Total SFC: total spot-forming cells, LTBI donors
[1] = individual MTB epitope peptide, one value per responding LTBI donor

| Molecule | SFC [1] | other results |
| --- | --- | --- |
| LDWFCLFSSAAALTG | 23.3 |  |
| ETLYWLAQPGIRESI | 31.7 |  |
| DPINEFFLANTGRPL | 66.7 |  |
| PPEVNSARVFAGAGS | 38.3 and 31.7 |  |
| AGTLSTFFGVPLVLT | 21.7 |  |
| AHLIHFAAANLRNPG | 30.0 |  |
| EHIHRPNTNNVGPII | 65.0 |  |
| AVVVLKRLPDALADG | 25.0 |  |
| AVLEDPYILLVSSKV | 21.7 |  |
| ESVFAATVAELESLI | 36.7 |  |
| AQIIHRITATARHPG | 53.3 |  |
| EPGDIIIDGGNALYT | 35.0 |  |
| AMNEAFVAMLGASAD | 31.7 |  |
| SAAGSYAAAEAANAS | 91.7 and 21.7 |  |
| TDNGAMIAAFAAQLV | 203.3 and 30.0 |  |
| ALLWLADQVDAALEK | 48.3 |  |
| GQQYQAMSAQAAAFH | 50.0 |  |
| FSLVNFFDAQVGPLS | 43.3 |  |
| VDVEDGRVIVDEYQR | 20.0 |  |
| FFGQNAPAIAAIEAA | 20.0 and 21.7 |  |
| SEFNEVFFNDVFVPD | 41.7 |  |
| EKMRVAGRIAAGALA | 20.0 |  |
| MDYFIRMWNQAALAM | 46.7 |  |
| APVVILAHGFPELAY | 23.3 |  |
| LTVDAGAYASAEAAN | 31.7 and 58.3 |  |

| Molecule | SFC [1] | other results |
| --- | --- | --- |
| HTVLVATNFFGINTI |  | SFC: 331.7 |
| ASVGSYAAAEAANAS | 38.3 |  |
| AAAQASAAAAAYEAA | 20.0 |  |
| EQMLIDDGILLRKYW | 178.3 |  |
| SQVIEAVNLFRANVI | 33.3 |  |
| APWQQVLRNLGIDIG | 96.7 |  |
| AVLLEKIVADEEEHI | 26.7 and 28.3 |  |
| QAARGIRPLFDDITE | 21.7 |  |
| ALRILVYSDNVQTRE | 91.7 |  |
| IGSSIGAANAAAAGS | 45.0 |  |
| LYRPGLVHIYHALTW | 28.3 |  |
| AGAMGAYAAAEAANA | 111.7 |  |
| DLDSYLVEITAEVLR | 23.3 |  |
| RVLLAGWEQFDEPVD | 101.7 |  |
| NPFPFLRQIIANQQV | 26.7 |  |
| ADVLTMKAVRAATAL | 41.7 |  |
| DPVKGADEVVAFAEE | 813.3 |  |
| ASMSMAAAASPYVGW | 78.3 |  |
| LRLLVIALKHNVILN | 31.7 |  |
| EHFGHERYDAFFSLA | 66.7 |  |
| RVIEDALRFYFESHE | 141.7 |  |
| RARQGFRDIEFHPTI | 45.0 and 28.3 |  |
| ALEMFYDDDADLSII | 25.0 |  |
| AGGFGGAGAGIANFL | 20.0 |  |
| CSEDLLYLSDLDFDV | 33.3 |  |

| Molecule | SFC [1] | other results |
| --- | --- | --- |
| ALPRLLRRLVIMGGM | 128.3 |  |
| QAVLTATNFFGINTI | 341.7 |  |
| FRVVISSRFGDIFRG | 20.0 |  |
| EGGNQIVQYLVAQKI | 25.0 |  |
| ITPDEGAYAFEALLR | 28.3 |  |
| EIYLNTFRHLYGLDC | 25.0 |  |
| QTLVYKGMLTTPQLK | 40.0 |  |
| ARVFLDSVLPALGEE | 38.3 |  |
| ELADLIEFARTVNEE | 43.3 |  |
| AAVIVGSGRIASLYV | 23.3 |  |
| QAFRSRFGENFFYIL | 31.7 |  |
| YLAWLSTAAAQAEQA | 145.0 and 100.0 |  |
| ERYVGLYLPFLDMSF | 23.3 |  |
| AGISSLIIDPNPMFV | 88.3 |  |
| GFTIANHNAAAVGEI | 140.0 |  |
| AVSIGILLSLIAPLG | 55.0 |  |
| CRGYDVVILDRYVAS | 21.7 |  |
| LPLLVPLRAIPLLGN | 20.0 |  |
| AELFRLQTEFVKLQE | 85.0 |  |
| ALVEEYLRGLRQAAG | 30.0 |  |
| AHESLCFAGANLIPL | 25.0 |  |
| KMAPVLRQIYDQMAE | 66.7 |  |
| ESGASYAARDALAAA | 45.0 |  |
| FLMSVGALIIGWLLQ | 26.7 |  |
| QRPRMLYDYFHQLFA | 141.7 |  |

| Molecule | SFC [1] | other results |
| --- | --- | --- |
| ESALFFIGVLIVALL | 55.0 |  |
| AAFDYADGAAEDELS | 21.7 |  |
| EMLSMLRAMLAPESL | 40.0 |  |
| DVTIRFRRFFSRLQR | 50.0 |  |
| Rv0289: MTB protein, novel CD4 T cell antigen; Cell wall and cell processes, Island 1, Esx-3 |  | Resp. freq.: 29%; Total SFC: 2298 SFC |
| IGLVLIAVLVFVPRV | 38.3 |  |
| ARFHQQFVQALTASV | 35.0 |  |
| ENFFMFIAEEVREYL | 23.3 and 65.0 |  |
| MAKTIAYDEEARRGL | 38.3 and 56.7 |  |
| AQTSQFVMAMINYED | 26.7 |  |
| AQEYQALSAQAAAFH | 41.7 |  |
| SLAVKTFEDLFAELG | 23.3 |  |
| GSAENFSVVEALADS | 138.3 and 20.0 |  |
| DVIHAFWVPEFLFKR | 158.3 |  |
| DSTVITDGDIVNIDV | 31.7 |  |
| Rv1243c: MTB protein, novel CD4 T cell antigen; PE/PPE |  | Resp. freq.: 11%; Total SFC: 114 SFC |
| HPQQFIYAGSLSALL | 35.0 |  |
| LVLVIDDEPQILRAL | 81.7 |  |
| NRASLMQLISTNVFG | 21.7 |  |
| LLSTRGYITAEKIRS | 35.0 |  |
| LVAQEAAAAGTPLVT | 23.3 |  |
| ADKNPLFLDEQLTRA | 45.0 |  |
| TGIFGLVLVICVVLI | 35.0 |  |
| GAYAAAEAANVSAAQ | 176.7 |  |
| EVNIKILIDSLVSAG | 201.7 |  |

| Molecule | SFC [1] | other results |
| --- | --- | --- |
| DDIPRVLAEAFHIAA | 31.7 |  |
| AGYPAELAYFEVLHE | 23.3 |  |
| SILDMRQLFDGIDLS | 26.7 |  |
| DTEVYLDAASLSPFV | 266.7 |  |
| GSTINAANAAAALPT | 36.7 and 190.0 |  |
| AVDAVFVGSCTNGRI | 46.7 |  |
| Rv2853: MTB protein, novel CD4 T cell antigen; PE/PPE |  | Resp. freq.: 11%; Total SFC: 85 SFC |
| CLGSHLARLELTLLV | 91.7 |  |
| CRRYEVLLIFDEIAT | 65.0 |  |
| AAHAGEYGQMVTLRG | 23.3 |  |
| TVAWTMLGVALSAYE | 50.0 and 25.0 |  |
| Rv3022c: MTB protein, novel CD4 T cell antigen; PE/PPE, Island 2 |  | Resp. freq.: 18%; Total SFC: 109 SFC |
| QLSAEYASTAAELSG | 26.7 |  |
| APPNLIRAILRAPVD | 30.0 |  |
| DTQSMIVTDHRYVPA | 33.3 |  |
| AVITELIAMLRHHHI | 40.0 |  |
| DMTKIVGLRARAKAA | 35.0 |  |
| B1 |  | Resp. freq.: 21%; Total SFC: 125 SFC |
| B2 |  | recognition by LTBI donors (result in words): prevalently recognized |
| B3 |  | Resp. freq.: 29%; Total SFC: 1595 SFC |
| B4 |  | Resp. freq.: 25%; Total SFC: 347 SFC |
| B5 |  | Resp. freq.: 25%; Total SFC: 355 SFC |
| B6 |  | Resp. freq.: 18%; Total SFC: 1368 SFC |

— US10703784B2, “Antigens and epitopes derived from Mycobacterium tuberculosis” (priority 2011, dated 2020)
